The values below come from US20240116946A1 (Gilead Sciences, Inc., priority 2022, published 2024).

Test [1] concerns SARS-CoV-2-NLuc. Kind of test: microbe, parasite or virus in culture. It is filed as cell-based, SARS Coronavirus 2.
The target in test [2] is recombinant SARS-CoV-2 Main protease (Mpro) (Severe acute respiratory syndrome coronavirus 2 (2019-nCoV) (SARS-CoV-2), UniProt P0DTD1). As to the kind of experiment: Cov Mpro Biochemical IC50 Assay. As to conditions: recombinant SARS-CoV-2 Mpro 7.5 nM, fluorogenic peptide substrate 40 μM; read-out: MPro IC50.
[3] abbreviates: Severe acute respiratory syndrome coronavirus, 48 h; read-out: MPro EC50.
The mark [4] stands for this setting: Severe acute respiratory syndrome coronavirus, 48 h, read-out: MPro EC50.

pEC50, pIC50: −log10 of the molar value. Read-outs that look alike come from different tables or passages of the source.

As to `COc1ccc(Cl)c(-c2cc3[nH]c(=O)n(-c4cncc5sc(C#N)c(C)c45)c(=O)c3s2)c1` [Example 1050, 4-(6-(2-chloro-5-methoxyphenyl)-2,4-dioxo-1,4-dihydrothieno[3,2-d]pyrimidin-3(2H)-yl)-3-methylthieno[2,3-c]pyridine-2-carbonitrile], in test [1] (setting [3]), the pEC50 was 7.59. In addition, the pIC50 in test [2] is 8.05.
In the case of `COc1cc(-c2cc3[nH]c(=O)n(-c4cncc5sc(C#N)c(C)c45)c(=O)c3s2)c(Cl)cc1F` [Example 1051], the pEC50 in test [1] (setting [4]) was 8.29. Besides, the negative logarithm of the IC50 (pIC50) in test [2] is 8.17.
Turning to `COc1cc(-c2cc3[nH]c(=O)n(-c4cncc5sc(C(F)F)c(C)c45)c(=O)c3s2)c(Cl)cc1F` [Example 1060, 6-(2-chloro-4-fluoro-5-methoxyphenyl)-3-(2-(difluoromethyl)-3-methylthieno[2,3-c]pyridin-4-yl)thieno[3,2-d]pyrimidine-2,4(1H,3H)-dione], the pEC50 in test [1] (setting [4]) was 7.54. Also, the pIC50 in test [2] was 7.70.
As for `N#CCCn1c(=O)n(-c2cncc(C#N)c2)c(=O)c2sc(-c3ccccc3Cl)cc21` [Example 1061, 5-(6-(2-chlorophenyl)-1-(2-cyanoethyl)-2,4-dioxo-1,4-dihydrothieno[3,2-d]pyrimidin-3(2H)-yl)nicotinonitrile], in test [1] (setting [3]), the pEC50 is 7.84. In addition, in test [2], the pIC50 was 8.29.
For the compound `COc1cc(-c2cc3c(s2)c(=O)n(-c2cncc4ccc(C#N)cc24)c(=O)n3CCC#N)c(Cl)cc1F` [Example 1062], the pEC50 in test [1] (setting [4]) was 8.27. In addition, in test [2], the pIC50 was 8.31.
Turning to `N#CCCn1c(=O)n(-c2cncc3ccc(C#N)cc23)c(=O)c2sc(-c3ccc(F)cc3Cl)cc21` [Example 1063], in test [1] (setting [4]), the negative-log EC50 (pEC50) was 7.40. For the same compound, the pIC50 in test [2] was 7.75.
With `N#CCCn1c(=O)n(-c2cncc(C3CC4(COC4)C3)c2)c(=O)c2sc(-c3ccccc3Cl)cc21` [Example 1064, 3-(3-(5-(2-oxaspiro[3.3]heptan-6-yl)pyridin-3-yl)-6-(2-chlorophenyl)-2,4-dioxo-3,4-dihydrothieno[3,2-d]pyrimidin-1(2H)-yl)propanenitrile], the pEC50 in test [1] (setting [3]) was 6.15. Further, in test [2], the pIC50 was 7.62.
For the compound `COc1cc(-c2cc3c(s2)c(=O)n(-c2cncc4cnn(C)c24)c(=O)n3CC(F)F)c(Cl)cc1F` [Example 1065, 6-(2-chloro-4-fluoro-5-methoxy-phenyl)-1-(2,2-difluoroethyl)-3-(1-methylpyrazolo[4,3-c]pyridin-7-yl)thieno[3,2-d]pyrimidine-2,4-dione], the pEC50 in test [1] (setting [3]) was 7.87. In addition, the pIC50 in test [2] was 8.15.
On to `COc1cc(-c2cc3c(s2)c(=O)n(-c2cncc4cnn(C)c24)c(=O)n3CC(F)(F)F)c(Cl)cc1F` [Example 1066], for which the pEC50 in test [1] (setting [4]) was 7.70. In test [2], the pIC50 is 7.82.
As to `COc1cc(-c2cc3c(s2)c(=O)n(-c2cncc4cnn(C)c24)c(=O)n3CCS(C)(=O)=O)c(Cl)cc1F` [Example 1067, 6-(2-chloro-4-fluoro-5-methoxy-phenyl)-3-(1-methylpyrazolo[4,3-c]pyridin-7-yl)-1-(2-methylsulfonylethyl)thieno[3,2-d]pyrimidine-2,4-dione], the pEC50 in test [1] (setting [3]) was 7.24. Further, in test [2], the pIC50 is 7.56.
As to `COc1cc(-c2cc3c(s2)c(=O)n(-c2cncc4cnn(C)c24)c(=O)n3CCN(C)C)c(Cl)cc1F` [Example 1068], the pEC50 in test [1] (setting [4]) is 6.66. In addition, in test [2], the pIC50 was 7.13.
`COCCn1c(=O)n(-c2cncc3cnn(C)c23)c(=O)c2sc(-c3cc(OC)c(F)cc3Cl)cc21` [Example 1069]: in test [1] (setting [4]), the pEC50 was 6.88. Besides, the pIC50 in test [2] is 7.41.
On to `COc1cc(-c2cc3c(s2)c(=O)n(-c2cncc4cnn(C)c24)c(=O)n3CCO)c(Cl)cc1F` [Example 1070], for which the pEC50 in test [1] (setting [4]) is 7.51. Further, the pIC50 in test [2] was 7.70.
The corresponding values for `COc1cc(-c2cc3c(s2)c(=O)n(-c2cncc4cnn(C)c24)c(=O)n3CC2CCCN2C)c(Cl)cc1F` (centres unmarked) [Example 1071] are 6.51 and 6.99.
Regarding `COc1cc(-c2cc3[nH]c(=O)n(-c4cncc5cccc(Cl)c45)c(=O)c3s2)c(Cl)cc1F` [Example 1074], the pEC50 in test [1] (read-out: MPro EC50) is 8.23. Besides, in test [2], the pIC50 is 8.36.
On to `COc1cc(-c2cc3[nH]c(=O)n(-c4cncc5cccc(Cl)c45)c(=O)c3s2)c(Cl)cc1F` [Example 1075], for which the pEC50 in test [1] (read-out: MPro EC50) is 7.93. In addition, the pIC50 in test [2] is 7.83.
Turning to `COc1cc(-c2cc3[nH]c(=O)n(-c4cncc5cccc(Cl)c45)c(=O)c3s2)c(Cl)cc1F` [Example 1078], the pEC50 in test [1] (setting [3]) is 8.02. The pIC50 in test [2] is 8.05.
Turning to `COc1cc(-c2cc3[nH]c(=O)n(-c4cncc5c4OCCC5)c(=O)c3s2)c(Cl)cc1F` [Example 1079], the negative-log EC50 (pEC50) in test [1] (setting [4]) is 8.02. Also, the pIC50 in test [2] was 7.99.
For `COc1cc(-c2cc3[nH]c(=O)n(-c4cncc(C)c4Cl)c(=O)c3s2)c(Cl)cc1F` [Example 1080], in that order: 7.44 and 7.69.
For `COc1cc(-c2cc3[nH]c(=O)n(-c4cncc5c(F)cccc45)c(=O)c3s2)c(Cl)cc1F` [Example 1081], in that order: 7.75 and 8.09.
For `COc1cc(-c2cc3[nH]c(=O)n(-c4cncc5ncc(C)n45)c(=O)c3s2)c(Cl)cc1F` [Example 1082], in test [1] (setting [4]), the pEC50 is 7.04. In addition, the pIC50 in test [2] is 7.74.
Take `COc1cnc(Cl)c(-c2cc3c(s2)c(=O)n(-c2cncc4cccc(F)c24)c(=O)n3CCC#N)c1` [Example 1083, 3-(6-(2-chloro-5-methoxypyridin-3-yl)-3-(5-fluoroisoquinolin-4-yl)-2,4-dioxo-3,4-dihydrothieno[3,2-d]pyrimidin-1(2H)-yl)propanenitrile]: the pEC50 in test [1] (setting [3]) is 7.44. In addition, in test [2], the pIC50 was 7.95.
Consider `N#CCCn1c(=O)n(-c2cncc3cccc(F)c23)c(=O)c2sc(-c3ccccc3Cl)cc21` [Example 1084], for which the negative logarithm of the EC50 (pEC50) in test [1] (setting [4]) is 7.93. Further, the pIC50 in test [2] was 8.12.
The corresponding values for `N#CCCn1c(=O)n(-c2cncc3cccc(F)c23)c(=O)c2sc(-c3ccccc3C#N)cc21` [Example 1085] are 7.38 and 7.64.
In the case of `COc1cnc(Cl)c(-c2cc3c(s2)c(=O)n(-c2cncc4nn(C)c(C)c24)c(=O)n3CCC#N)c1` [Example 1086], the pEC50 in test [1] (setting [4]) was 6.38. Also, the negative logarithm of the IC50 (pIC50) in test [2] is 7.61.
The corresponding values for `COc1cnc(C#N)c(-c2cc3c(s2)c(=O)n(-c2cncc4nn(C)c(C)c24)c(=O)n3CCC#N)c1` [Example 1087] are under 6.00 and 7.22.
Turning to `COc1cc(-c2cc3c(s2)c(=O)n(-c2cncc4ccccc24)c(=O)n3CC(C)C#N)c(Cl)cc1F` (centres unmarked) [Example 1096, 3-(6-(2-chloro-4-fluoro-5-methoxyphenyl)-3-(isoquinolin-4-yl)-2,4-dioxo-3,4-dihydrothieno[3,2-d]pyrimidin-1(2H)-yl)-2-methylpropanenitrile], in test [1] (setting [3]), the negative logarithm of the EC50 (pEC50) was 7.80. The pIC50 in test [2] was 7.98.
With `COc1cc(-c2cc3c(s2)c(=O)n(-c2cncc4ccccc24)c(=O)n3Cc2cc(F)c(F)c(F)c2)c(Cl)cc1F` [Example 1099, 6-(2-chloro-4-fluoro-5-methoxy-phenyl)-3-(4-isoquinolyl)-1-[(3,4,5-trifluorophenyl)methyl]thieno[3,2-d]pyrimidine-2,4-dione], the pEC50 in test [1] (setting [3]) was 6.04. Besides, in test [2], the pIC50 is 6.41.
